Test results as given in US10028956B2, “Methods of treating various cancers using an AXL/cMET inhibitor in combination with other agents” (Ignyta, Inc., priority 2013, dated 2018).
Marks after values point to notes of the source that are not given here.

Experiments:
Assay type in all cases: in vivo, mice
[1] = system: CTG-0157 primary NSCLC human TumorGraft; test: NSCLC TumorGraft model CTG-0157; conditions: CTG-0157, 14 days, 10 mg/kg iv/q4dx3
Protocol: (§1) Methods (for the experiments shown in FIGS. 10 and 11) • Female immunocompromised nu/nu mice (Harlan) between 6-9 weeks of age were housed on irradiated papertwist-enriched ⅛″ corncob bedding (Sheperd) in individual HEPA ventilated cages (Innocage® IVC, Innovive USA) on a 12-hour light-dark cycle at 68-74° F. (20-23° C.) and 30-70% humidity. Animals were fed water ad libitum (reverse osmosis, 2 ppm Cl2) and an irradiated Test rodent diet (Teklad 2919) consisting of 19% protein, 9% fat, and 4% fiber. • Tumor Models: Champions TumorGraft models of NSCLC are owned by Champions Oncology. In this study, animals were implanted unilaterally on the right flank with tumor fragments harvested from host animals. […] Erlotinib (manufacturer: OSI Pharmaceuticals; National Drug Code: 50242-062-01; Lot #: US0002) was formulated using 100% PEG-400 as the vehicle according to manufacturer's specifications.
(§2) Efficacy measurements: Beginning Day 0, tumor dimensions were measured twice weekly by digital caliper (Fowler Ultra-Cal IV) and data including individual and mean estimated tumor volumes (Mean TV±SEM) were recorded for each group; tumor volume was calculated using the formula TV=width^2×length×0.52. At study completion, percent tumor growth inhibition (% TGI) values were calculated and reported for each treatment group (T) versus control (C) using initial (i) and final (f) tumor measurements by the formula: % TGI=1−Tf−Ti/Cf−C; single agent or combination therapies resulting in a TGI>50 at study completion are considered active in the tested model at the evaluated treatment regimen according to NCI guidelines. […] If the PR persisted until study completion, percent tumor regression (% TR) was determined using the formula: % TR=1−Tf/Ti×100; a mean value was calculated if multiple PR mice occurred in one group. […] Statistical differences in tumor volume were determined using a two-tailed One-Way Analysis of Variance (ANOVA) followed by the Dunett's multiple comparisons test comparing treated groups with control and combinations with standard agent alone when possible. […]

[2] = system: CTG-0165 erlotinib-insensitive primary NSCLC human TumorGraft; test: NSCLC TumorGraft model CTG-0165; conditions: CTG-0165, 37 days, 10 mg/kg iv/q4dx3
Protocol: as §1
(§3) Efficacy measurements: Beginning Day 0, tumor dimensions were measured twice weekly by digital caliper (Fowler Ultra-Cal IV) and data including individual and mean estimated tumor volumes (Mean TV±SEM) were recorded for each group; tumor volume was calculated using the formula TV=width^2×length×0.52. At study completion, percent tumor growth inhibition (% TGI) values were calculated and reported for each treatment group (T) versus control (C) using initial (i) and final (f) tumor measurements by the formula: % TGI=1−Tf−Ti/Cf−C; single agent or combination therapies resulting in a TGI>50 at study completion are considered active in the tested model at the evaluated treatment regimen according to NCI guidelines. Individual mice reporting a tumor volume ≤50% of the Day 0 measurement for two consecutive measurements over a seven day period were considered partial responders (PR). If the PR persisted until study completion, percent tumor regression (% TR) was determined using the formula: % TR=1−Tf/Ti×100; a mean value was calculated if multiple PR mice occurred in one group. Individual mice lacking palpable tumors (<4×4 mm^2 for two consecutive measurements over a seven day period) were classified as complete responders (CR); a CR that persisted until study completion was considered a tumor-free survivor (TFS). TFS animals are excluded from efficacy calculations. Statistical differences in tumor volume were determined using a two-tailed One-Way Analysis of Variance (ANOVA) followed by the Dunett's multiple comparisons test comparing treated groups with control and combinations with standard agent alone when possible. All data collected in this study was managed electronically and stored on a redundant server system.

[3] = system: CTG-0159 primary NSCLC human TumorGraft; test: NSCLC TumorGraft model CTG-0159; conditions: CTG-0159, 14 days, 10 mg/kg iv/q4dx3
Protocol: as §1, §2

[4] = system: CTG-0170 erlotinib-insensitive primary NSCLC human TumorGraft; test: NSCLC TumorGraft model CTG-0170; conditions: CTG-0170, 10 days, 10 mg/kg iv/q4dx3
Protocol: as §1, §3

[5] = system: CTG-0192 erlotinib-sensitive NSCLC TumorGraft; test: NSCLC TumorGraft model CTG-0192
Protocol: as §1, §3

SMILES	% Tumor Growth Inhibition [1] [%]	% Tumor Growth Inhibition [2] [%*]	% Tumor Growth Inhibition [3] [%*]	% Tumor Growth Inhibition [4] [%*]	% Tumor Growth Inhibition ([5]; CTG-0192, 32 days, 10 mg/kg iv/q4dx3) [%*]	day of acquired resistance ([5]; CTG-0192, 35 mg/kg, po, qd×34) [days]	tumor regrowth after discontinuation of dosing (day 34) ([5]; CTG-0192, 35 mg/kg, po, qd×34)	tumor response during dosing ([5]; CTG-0192, 35 mg/kg, po, qd×34)
CC(=O)O[C@H]1C(=O)[C@@]2(C)[C@H]([C@H](OC(=O)c3ccccc3)[C@]3(O)C[C@H](OC(=O)[C@H](O)[C@@H](NC(=O)c4ccccc4)c4ccccc4)C(C)=C1C3(C)C)[C@]1(OC(C)=O)CO[C@@H]1C[C@@H]2O [Paclitaxel, reference compound]	41	56	25	77	105	–	–	–
C#Cc1cccc(Nc2ncnc3cc(OCCOC)c(OCCOC)cc23)c1 [erlotinib, reference compound]	–	–	–	–	–	~29	rate of tumor regrowth was similar to control/vehicle	initial sensitivity followed by acquired erlotinib-resistance
